Calls of active or inactive are those of the source.
Columns and labels:
[1] = molecular target: Mitogen-activated protein kinase 10 (Homo sapiens, UniProt P53779); assay: Dose response biochemical screening assay for inhibitors of c-Jun N-Terminal Kinase 3 (JNK3). [Related pubchem assays: 746 ]
[2] = molecular target: Peroxisome proliferator-activated receptor gamma/Nuclear receptor corepressor 2 (Homo sapiens, UniProt P37231+Q9Y618); assay: Counterscreen for NR2E3 inverse agonists: TR-FRET-based biochemical high throughput dose response assay to identify inverse agonists of the interaction between peroxisome proliferator-activated receptor gamma (PPARg) and nuclear receptor co-repressor 2 (NCOR2).; type: functional
[3] = molecular target: ADP-ribosylation factor GTPase-activating protein 1 (Rattus norvegicus, UniProt Q62848); assay: Fluorescence polarization-based biochemical high throughput dose response screening assay to identify inhibitors of ADP-ribosylation factor GTPase activating protein 1 (ARFGAP1).; type: functional
[4] = molecular target: Photoreceptor-specific nuclear receptor (Homo sapiens, UniProt Q9Y5X4); assay: ligands suppressing NR2E3 nuclear receptor activity – biochemical, TR-FRET, dose response (AID 463256); type: functional
Photoreceptor-specific nuclear receptor, sequence (Q9Y5X4 whole entry): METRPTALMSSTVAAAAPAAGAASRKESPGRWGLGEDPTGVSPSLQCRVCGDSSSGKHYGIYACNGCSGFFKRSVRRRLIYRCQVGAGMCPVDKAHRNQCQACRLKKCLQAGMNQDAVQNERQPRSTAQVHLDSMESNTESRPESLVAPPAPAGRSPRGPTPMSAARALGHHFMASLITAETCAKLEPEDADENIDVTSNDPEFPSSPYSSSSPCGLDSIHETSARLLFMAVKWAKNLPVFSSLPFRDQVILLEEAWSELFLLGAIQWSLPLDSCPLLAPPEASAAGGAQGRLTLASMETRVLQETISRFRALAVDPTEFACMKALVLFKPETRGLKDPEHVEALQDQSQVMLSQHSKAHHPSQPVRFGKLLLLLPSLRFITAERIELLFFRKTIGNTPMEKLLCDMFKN

[5] = M. tuberculosis H37Rv growth inhibitors, H37Rv strain (AID 1626); type: functional
[6] = molecular target: Protein-tyrosine kinase 2-beta (Homo sapiens, UniProt Q14289);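 note: potency of inhibitors of PYK2 kinase phosphorylation of poly-GT substrate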
Protein-tyrosine kinase 2-beta, sequence (Q14289 whole entry): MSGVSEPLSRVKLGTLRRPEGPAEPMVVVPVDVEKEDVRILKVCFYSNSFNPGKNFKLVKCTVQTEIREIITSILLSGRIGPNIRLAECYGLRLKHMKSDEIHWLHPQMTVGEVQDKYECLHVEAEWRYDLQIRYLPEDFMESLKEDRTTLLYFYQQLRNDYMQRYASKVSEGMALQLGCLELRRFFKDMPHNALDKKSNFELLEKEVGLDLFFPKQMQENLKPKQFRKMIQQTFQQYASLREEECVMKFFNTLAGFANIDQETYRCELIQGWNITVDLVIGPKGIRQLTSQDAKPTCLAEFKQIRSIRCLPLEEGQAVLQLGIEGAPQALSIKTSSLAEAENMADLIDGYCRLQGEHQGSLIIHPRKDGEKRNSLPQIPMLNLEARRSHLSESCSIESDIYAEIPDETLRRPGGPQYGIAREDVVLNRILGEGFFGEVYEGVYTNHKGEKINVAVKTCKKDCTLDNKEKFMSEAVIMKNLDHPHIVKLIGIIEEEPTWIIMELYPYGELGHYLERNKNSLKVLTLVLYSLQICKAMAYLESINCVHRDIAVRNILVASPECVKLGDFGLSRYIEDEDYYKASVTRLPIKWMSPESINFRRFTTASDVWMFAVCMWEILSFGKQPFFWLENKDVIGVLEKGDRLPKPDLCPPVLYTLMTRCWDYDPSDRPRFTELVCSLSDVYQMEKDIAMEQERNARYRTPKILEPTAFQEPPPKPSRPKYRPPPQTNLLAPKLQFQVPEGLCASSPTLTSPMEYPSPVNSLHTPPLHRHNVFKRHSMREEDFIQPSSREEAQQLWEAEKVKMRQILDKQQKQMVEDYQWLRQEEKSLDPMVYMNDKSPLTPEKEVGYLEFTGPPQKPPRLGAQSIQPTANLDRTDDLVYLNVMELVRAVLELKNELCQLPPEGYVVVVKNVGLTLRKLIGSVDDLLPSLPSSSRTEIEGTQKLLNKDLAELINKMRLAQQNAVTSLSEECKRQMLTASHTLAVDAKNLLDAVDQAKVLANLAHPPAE

[7] = molecular target: T1, Mannose-6-phosphate isomerase (Homo sapiens, UniProt P34949); assay: MPI enzyme activity inhibition – biochemical, fluorescence intensity, coupled assay, primary screen (AID 1209)
T1 sequence (P34949 whole entry): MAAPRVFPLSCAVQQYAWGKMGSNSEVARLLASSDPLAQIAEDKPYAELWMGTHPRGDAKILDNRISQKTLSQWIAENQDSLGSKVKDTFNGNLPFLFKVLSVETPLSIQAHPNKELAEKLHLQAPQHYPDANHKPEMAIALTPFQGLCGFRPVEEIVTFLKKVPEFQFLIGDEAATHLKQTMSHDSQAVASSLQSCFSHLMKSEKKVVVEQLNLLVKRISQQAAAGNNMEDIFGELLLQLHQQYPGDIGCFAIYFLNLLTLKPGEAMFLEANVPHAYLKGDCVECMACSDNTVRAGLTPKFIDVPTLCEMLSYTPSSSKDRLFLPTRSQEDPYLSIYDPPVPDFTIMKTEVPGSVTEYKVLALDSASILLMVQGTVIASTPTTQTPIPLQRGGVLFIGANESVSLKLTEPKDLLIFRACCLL

Genome polyprotein = Genome polyprotein (Hepatitis C virus, UniProt Q2Q167); assay: disruption of hepatitis C core self-association – biochemical, TR-FRET, dose response (AID 2159); design: species or system Hepacivirus hominis;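 note: blocks dimerization of HCV core protein measured by TR-FRET between tagged core106 pairs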
Genome polyprotein, sequence (Q2Q167 whole entry): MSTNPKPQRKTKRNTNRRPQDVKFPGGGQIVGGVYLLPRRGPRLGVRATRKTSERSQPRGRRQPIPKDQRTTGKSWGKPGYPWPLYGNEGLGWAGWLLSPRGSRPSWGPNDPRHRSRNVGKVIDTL

Ephrin type-A receptor 4 = Ephrin type-A receptor 4 (Mus musculus, UniProt Q03137); assay: EphA4 ligand-binding antagonists – biochemical, colorimetric, mouse EphA4, primary screen (AID 689); type: functional
Ephrin type-A receptor 4, sequence (Q03137 whole entry): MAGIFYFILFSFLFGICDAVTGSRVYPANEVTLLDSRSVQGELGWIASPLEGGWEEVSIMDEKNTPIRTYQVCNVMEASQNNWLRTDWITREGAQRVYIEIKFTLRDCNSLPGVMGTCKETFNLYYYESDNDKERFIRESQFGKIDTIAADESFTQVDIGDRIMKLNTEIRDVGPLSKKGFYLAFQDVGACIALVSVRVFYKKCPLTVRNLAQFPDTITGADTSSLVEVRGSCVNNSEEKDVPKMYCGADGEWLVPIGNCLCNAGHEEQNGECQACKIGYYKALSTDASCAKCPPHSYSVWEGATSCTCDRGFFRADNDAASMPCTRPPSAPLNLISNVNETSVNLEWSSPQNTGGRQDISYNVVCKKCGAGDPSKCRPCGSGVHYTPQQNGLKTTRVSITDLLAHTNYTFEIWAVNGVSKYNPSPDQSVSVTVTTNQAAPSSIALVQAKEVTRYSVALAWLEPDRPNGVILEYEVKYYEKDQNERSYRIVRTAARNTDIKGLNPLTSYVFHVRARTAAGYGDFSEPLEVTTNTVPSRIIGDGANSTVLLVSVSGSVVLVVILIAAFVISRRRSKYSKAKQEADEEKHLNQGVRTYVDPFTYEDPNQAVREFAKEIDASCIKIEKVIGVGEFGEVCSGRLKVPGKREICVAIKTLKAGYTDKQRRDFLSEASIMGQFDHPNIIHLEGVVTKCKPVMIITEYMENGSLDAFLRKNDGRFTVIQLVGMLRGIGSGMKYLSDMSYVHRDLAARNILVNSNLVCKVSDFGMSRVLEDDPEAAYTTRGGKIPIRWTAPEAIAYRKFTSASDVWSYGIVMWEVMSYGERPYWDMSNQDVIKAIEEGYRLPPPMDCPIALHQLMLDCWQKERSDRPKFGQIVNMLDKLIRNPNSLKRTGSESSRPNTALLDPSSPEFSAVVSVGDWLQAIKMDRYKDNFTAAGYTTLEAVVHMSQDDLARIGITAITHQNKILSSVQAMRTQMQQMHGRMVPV

[8] = toxicity to human HepG2 hepatoma cells – cell-based, plate reader, dry powder samples, cytotoxicity control, dose response (AID 1159569); type: functional;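 note: inhibitor potency with signal falling toward the positive control level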
[9] = growth inhibition of yeast DHODH-expressing 3D7 parasites – SYBR Green, dry powder samples, dose response (AID 1159570); type: functional, cell-based;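 note: parasite growth measured after 72 hours of compound exposure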
[10] = growth inhibition of PfATP4-mutant resistant parasites – NITD609-resistant line, SYBR Green, dry powder, dose response (AID 1159571); type: functional, cell-based;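 note: parasites synchronized at ring stage by sorbitol before testing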
[11] = Plasmodium falciparum Dd2 Sybr green parasite growth Measured in Cell-Based and Microorganism Combination System Using Plate Reader - 2153-01_Inhibitor_Dose_DryPowder_Activity_Set3.; type: functional
[12] = A549 cell cytotoxicity, dose response, cytotoxicity control, plate reader, cherry-pick, antagonist series (AID 743412); type: functional, cell-based
[13] = P. falciparum Dd2 growth inhibitors, dose response, SYBR Green, cherry-picked samples (AID 1159567); type: functional, cell-based
[14] = Dd2 malaria parasite growth inhibition potency – SYBR Green, dry powder samples, dose response (AID 1159566); type: functional, cell-based;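 note: potency for growth inhibition with lower SYBR green DNA signal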
D(3) dopamine receptor = D(3) dopamine receptor (Homo sapiens, UniProt P35462); assay: Counterscreening of D4 Antagonists against Dopamine 3 DRD3 (Human), Confirmatory Assay.; type: functional
D(3) dopamine receptor, sequence (P35462 whole entry): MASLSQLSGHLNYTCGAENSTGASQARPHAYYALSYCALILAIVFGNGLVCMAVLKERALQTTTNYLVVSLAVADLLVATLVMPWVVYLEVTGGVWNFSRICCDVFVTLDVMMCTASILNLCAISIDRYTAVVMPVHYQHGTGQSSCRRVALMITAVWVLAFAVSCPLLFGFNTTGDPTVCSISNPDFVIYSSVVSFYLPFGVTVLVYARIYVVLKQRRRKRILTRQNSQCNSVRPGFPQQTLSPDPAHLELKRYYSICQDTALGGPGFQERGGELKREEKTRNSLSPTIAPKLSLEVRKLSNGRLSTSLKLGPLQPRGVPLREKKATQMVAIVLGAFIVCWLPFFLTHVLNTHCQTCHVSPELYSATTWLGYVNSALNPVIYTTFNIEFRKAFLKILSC

D(1A) dopamine receptor = D(1A) dopamine receptor (Homo sapiens, UniProt P21728); assay: Counterscreening of D4 Antagonists against Dopamine 1 (Human), Confirmatory Assay.; type: functional
D(1B) dopamine receptor = D(1B) dopamine receptor (Homo sapiens, UniProt P21918); assay: Counterscreening of D4 Antagonists against Dopamine 5 DRD5 (Human), Confirmatory Assay.; type: functional
D(1B) dopamine receptor, sequence (P21918 whole entry): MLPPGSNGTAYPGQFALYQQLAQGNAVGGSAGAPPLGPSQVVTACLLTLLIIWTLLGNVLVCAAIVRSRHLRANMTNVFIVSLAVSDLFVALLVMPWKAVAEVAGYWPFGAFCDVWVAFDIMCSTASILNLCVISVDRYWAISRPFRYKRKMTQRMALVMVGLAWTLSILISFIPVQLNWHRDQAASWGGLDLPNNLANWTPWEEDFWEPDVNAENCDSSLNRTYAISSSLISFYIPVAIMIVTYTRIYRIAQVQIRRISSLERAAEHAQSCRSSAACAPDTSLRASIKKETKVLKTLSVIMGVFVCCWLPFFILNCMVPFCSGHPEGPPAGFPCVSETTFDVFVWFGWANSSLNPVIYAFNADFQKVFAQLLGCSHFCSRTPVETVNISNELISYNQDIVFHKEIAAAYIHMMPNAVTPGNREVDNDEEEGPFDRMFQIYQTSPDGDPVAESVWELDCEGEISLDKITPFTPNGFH

D(2) dopamine receptor = D(2) dopamine receptor (Homo sapiens, UniProt P14416); assay: Counterscreening of D4 Antagonists against Dopamine 2S (Human), Confirmatory Assay.; type: functional
D(2) dopamine receptor, sequence (P14416 whole entry): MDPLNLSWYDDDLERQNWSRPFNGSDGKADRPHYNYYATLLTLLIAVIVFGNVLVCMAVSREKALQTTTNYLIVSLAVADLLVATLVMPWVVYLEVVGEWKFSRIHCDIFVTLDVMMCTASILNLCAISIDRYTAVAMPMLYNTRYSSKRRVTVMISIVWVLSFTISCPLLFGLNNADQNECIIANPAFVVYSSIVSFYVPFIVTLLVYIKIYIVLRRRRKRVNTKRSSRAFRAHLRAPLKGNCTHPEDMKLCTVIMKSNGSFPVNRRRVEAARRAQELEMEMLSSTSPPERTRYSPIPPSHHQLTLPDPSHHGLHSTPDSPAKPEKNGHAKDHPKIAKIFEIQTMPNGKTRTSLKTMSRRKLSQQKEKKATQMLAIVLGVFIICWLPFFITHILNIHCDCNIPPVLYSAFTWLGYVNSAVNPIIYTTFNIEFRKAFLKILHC

[15] = molecular target: Metabotropic glutamate receptor 7 (Homo sapiens, UniProt Q14831); assay: potentiation of glutamate EC20 at mGlu7 – cell-based, calcium mobilization, Galpha15, dose response (AID 743384); type: functional
[16] = glucagon-like peptide-1 release potency in STC-1, concentration-response, half-maximal inhibitory concentration in the STC-1 line (AID 1117345); type: functional, cell-based
Large T antigen = Large T antigen (Simian virus 40, UniProt P03070); type: functional, Betapolyomavirus macacae;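 note: Confirmatory-stage PubChem screen for compounds that inhibit SV40 T antigen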
Large T antigen, sequence (P03070 whole entry): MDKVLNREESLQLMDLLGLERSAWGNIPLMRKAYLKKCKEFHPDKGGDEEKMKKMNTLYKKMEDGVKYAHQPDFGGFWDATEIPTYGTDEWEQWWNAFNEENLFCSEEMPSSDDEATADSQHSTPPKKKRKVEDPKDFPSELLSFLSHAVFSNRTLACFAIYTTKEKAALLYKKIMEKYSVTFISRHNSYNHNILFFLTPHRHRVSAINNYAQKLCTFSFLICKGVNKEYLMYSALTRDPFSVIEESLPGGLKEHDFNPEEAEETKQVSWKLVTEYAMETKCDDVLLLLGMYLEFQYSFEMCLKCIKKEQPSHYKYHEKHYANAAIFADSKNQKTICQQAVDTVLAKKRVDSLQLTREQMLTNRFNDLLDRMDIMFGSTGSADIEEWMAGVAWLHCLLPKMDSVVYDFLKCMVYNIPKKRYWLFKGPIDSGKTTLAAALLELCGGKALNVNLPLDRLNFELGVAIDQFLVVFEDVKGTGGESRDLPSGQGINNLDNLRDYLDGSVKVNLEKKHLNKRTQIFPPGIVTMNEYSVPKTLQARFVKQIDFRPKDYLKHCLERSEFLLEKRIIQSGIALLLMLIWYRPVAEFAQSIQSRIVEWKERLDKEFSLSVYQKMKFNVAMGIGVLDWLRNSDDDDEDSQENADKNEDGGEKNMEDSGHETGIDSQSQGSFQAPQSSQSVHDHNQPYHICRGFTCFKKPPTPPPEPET

[17] = IC50 of insulin release inhibition, rat insulinoma INS-1E line, 5 mM glucose, cell-based (AID 1117331); type: functional
[18] = Potency on glucagon-like peptide 1 release, dose-response in NCI-H716 cell line, half maximal inhibitory concentration (AID 1117344); type: functional, cell-based

Mitogen-activated protein kinase 10, sequence (P53779 whole entry): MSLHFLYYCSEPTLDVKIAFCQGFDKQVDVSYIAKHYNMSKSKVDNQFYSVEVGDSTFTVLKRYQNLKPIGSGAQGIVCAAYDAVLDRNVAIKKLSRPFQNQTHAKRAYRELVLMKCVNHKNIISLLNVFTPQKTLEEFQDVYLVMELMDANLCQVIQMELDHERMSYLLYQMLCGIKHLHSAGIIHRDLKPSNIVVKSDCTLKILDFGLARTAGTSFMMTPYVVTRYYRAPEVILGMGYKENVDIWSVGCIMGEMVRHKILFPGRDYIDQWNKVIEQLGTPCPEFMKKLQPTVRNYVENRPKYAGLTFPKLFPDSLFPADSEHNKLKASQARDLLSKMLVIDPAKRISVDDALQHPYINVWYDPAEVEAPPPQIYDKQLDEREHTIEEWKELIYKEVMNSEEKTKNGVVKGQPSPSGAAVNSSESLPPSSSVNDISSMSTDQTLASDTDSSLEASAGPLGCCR

In the case of `N#Cc1c(N)nc2c(c1-c1ccco1)CCCCC2`, the IC50 [1] is reported as > 93.1 µM (not active).
For `Cc1c(C(=O)Nc2ccc(-n3cnnn3)cc2)oc2ccccc12`, the IC50 [2] was 7.48 µM (active), the IC50 [3] was 78.5 µM (inactive) and the IC50 [4] was 8.46 µM (active).
For `O=C(Oc1ccc2ccc(O)cc2c1)C1CCCCC1`, the IC50 [5] was > 100 µM (active).
In the case of `CCOc1ccc(S(=O)(=O)N(CC(=O)N/N=C/c2ccc(-c3ccc([N+](=O)[O-])cc3)o2)c2ccccc2)cc1`, the IC50 [6] is reported as 15.8 µM (not active), the IC50 [7] is reported as 36.4 µM (active) and the IC50 (Genome polyprotein) is reported as > 49.8 µM (not active). For the same compound, the IC50 (Ephrin type-A receptor 4) was 45.6 µM (active).
For `CCCNC(=O)N1[C@H](C#N)[C@H](c2ccc(C#Cc3ccc(F)cc3)cc2)[C@H]1CO`, the AC50 [8] was 22.3 µM (active), the AC50 [9] was 7.89 µM (active) and the AC50 [10] was 0.0156 µM (active). For the same compound, the AC50 [11] was 0.00982 µM (active), the AC50 [12] was 24.7 µM (active) and the AC50 [13] was < 0.3 µM (active). The AC50 [14] was 0.016 µM (active).
For `Clc1ccc(CN2CCO[C@H](CCc3ccccc3)C2)cc1`, the IC50 (D(3) dopamine receptor) was 20 µM (inactive), the IC50 (D(1A) dopamine receptor) was 20 µM (inactive) and the IC50 (D(1B) dopamine receptor) was 20 µM (inactive). The IC50 (D(2) dopamine receptor) was 20 µM (inactive).
With `CC(=O)Nc1ccc(SCC(=O)c2cc(C)n(CCc3cccs3)c2C)cc1` the EC50 [15] was 2 µM (active).
With `Oc1ccc(O)cc1` [HYDROQUINONE] the IC50 [16] was 1.01 µM (active), the IC50 (Large T antigen) was 7.76 µM (active) and the IC50 [17] was > 33.3 µM (inactive). The IC50 [18] was > 40 µM (inactive).

Reference: ChEMBL document CHEMBL1201862, “PubChem BioAssay data set” (2004)
